Source: ChEMBL document CHEMBL1127393 (J Med Chem, 1994)

How the values were obtained:
[1] = Tested for the 50% inhibition level against [125I]- gastrin binding to guinea pig gastric glands; format: functional, tissue-based, Cavia porcellus, Stomach
[2] = target: T1, Gastrin/cholecystokinin type B receptor (Rattus norvegicus, UniProt P30553); assay: Tested for the 50% inhibition level against [125I]- gastrin binding in AR42J cells; format: cell-based, AR-42J
T1 sequence (P30553 whole entry): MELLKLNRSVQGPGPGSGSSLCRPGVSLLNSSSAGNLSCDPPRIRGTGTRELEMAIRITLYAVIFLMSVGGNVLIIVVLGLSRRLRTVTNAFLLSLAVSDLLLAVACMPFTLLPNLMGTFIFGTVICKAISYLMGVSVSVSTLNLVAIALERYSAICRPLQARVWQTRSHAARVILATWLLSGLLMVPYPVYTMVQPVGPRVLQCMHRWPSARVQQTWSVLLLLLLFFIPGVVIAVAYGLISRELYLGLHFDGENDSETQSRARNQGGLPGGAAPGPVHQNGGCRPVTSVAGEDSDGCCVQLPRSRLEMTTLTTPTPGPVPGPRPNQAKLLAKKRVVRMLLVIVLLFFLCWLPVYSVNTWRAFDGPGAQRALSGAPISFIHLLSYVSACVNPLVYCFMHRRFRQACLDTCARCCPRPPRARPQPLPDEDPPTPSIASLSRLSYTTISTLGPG

SMILES | EC50 [1] [µM] | EC50 [2] [µM]
O=C(CCC(=O)N(Cc1ccccc1)/N=N/CCCl)NCCC(=O)NC(Cc1c[nH]c2ccccc12)C(=O)O (stereo not drawn) | 63 | 200
CSCC[C@H](NC(=O)[C@H](Cc1c[nH]c2ccccc12)NC(=O)CNC(=O)[C@H](Cc1ccc(O)cc1)NC(=O)[C@H](C)NC(=O)[C@H](CCC(=O)O)NC(=O)[C@H](CCC(=O)O)NC(=O)[C@H](CCC(=O)O)NC(=O)[C@H](CCC(=O)O)NC(=O)[C@H](CCC(=O)O)NC(=O)[C@H](CC(C)C)NC(=O)[C@H](Cc1c[nH]c2ccccc12)NC(=O)[C@@H]1CCCN1C(=O)CNC(=O)[C@@H](N)CCC(=O)O)C(=O)N[C@@H](CC(=O)O)C(=O)N[C@@H](Cc1ccccc1)C(N)=O [GASTRIN] | 0.6 | 
